This assay deals with cardiac cells (H9C2). Briefly: Protective effect against t-BHP-induced cell death in cardiac cells (LDH release). The format is cell-based. The settings on record: Rattus norvegicus, t-BHP 400 PM, 2 hours, read-out: EC50, protective effect against cell death due to t-BHP induction. The method, then: To confirm a protective effect on cardiac cells, H9C2 cells were seeded at 1.5×10^4 cells/well in a 96-well plate and cultured for 24 hours. The example compounds were diluted to have the final concentration of 0.001, 0.01, 0.03, 0.1, 0.3, 1, 3, 10, and 30 PM, respectively, and then added to different wells, and the resulting cells were cultured for 15 to 20 minutes. Tert-butyl hydroperoxide (t-BHP) was treated to have the final concentration of 400 PM, and the resulting cells were cultured for 2 hours. To confirm the cell death protection effect of each compound, the degree of extracellular secretion of lactate dehydrogenase (LDH) was measured using a cytotoxicity LDH assay kit [Dojindo; CK12]. Briefly, after 2 hours of t-BHP treatment on the cells, 70 μL of the supernatant was taken from the 96-well plate where the cells were cultured and transferred to a new 96-well plate. The assay buffer included in the kit was added at 70 μL/well (equal to that of the sample) and the plate was covered with foil to block light and allowed to react for 15 minutes at room temperature. While observing a color change of each sample, 35 μL/well of a stop solution was added, an absorbance at 490 nm was measured using an iD3 spectrophotometer, and an EC50 value was calculated.

pEC50: −log10 of the molar value. Bounds are passed on as bounds.

One may read the pEC50 as the EC50 on a negative log10 scale, so that one unit is a factor of ten.

Consider `CCN(CC)C(=O)c1cc(NC2CCCC2)c2[nH]c(-c3ccccc3)cc2c1` [Example 1, 7-(cyclopentylamino)-N,N-diethyl-2-phenyl-1H-indol-5-carboxamide], for which the pEC50 is no less than 6.52.
The figure for `CCN(CC)C(=O)c1cc(NC2CCOCC2)c2[nH]c(-c3ccccc3)cc2c1` [Example 2, N,N-diethyl-2-phenyl-7-((tetrahydro-2H-pyran-4-yl)amino)-1H-indol-5-carboxamide] is no less than 6.52; for `CCN(CC)C(=O)c1cc(NCc2ccccc2)c2[nH]c(-c3ccccc3)cc2c1` [Example 3, 7-(benzylamino)-N,N-diethyl-2-phenyl-1H-indole-5-carboxamide] it is no less than 6.52.
`CCN(CC)C(=O)c1cc(NCc2ccncc2)c2[nH]c(-c3ccccc3)cc2c1` [Example 4, N,N-diethyl-2-phenyl-7-((pyridin-4-ylmethyl)amino)-1H-indole-5-carboxamide]: the pEC50 was no less than 6.52.
Under `O=C(NC1CC1)c1cc(NC2CCCC2)c2[nH]c(-c3ccccc3)cc2c1` [Example 5, 7-(cyclopentylamino)-N-cyclopropyl-2-phenyl-1H-indole-5-carboxamide] stands no less than 6.52.
In the case of `O=C(NC1CC1)c1cc(NC2CCOCC2)c2[nH]c(-c3ccccc3)cc2c1` [Example 6, N-cyclopropyl-2-phenyl-7-((tetrahydro-2H-pyran-4-yl)amino)-1H-indole-5-carboxamide], the pEC50 is no less than 6.52.
Under `O=C(NC1CC1)c1cc(NCc2ccccc2)c2[nH]c(-c3ccccc3)cc2c1` [Example 7, 7-(benzylamino)-N-cyclopropyl-2-phenyl-1H-indole-5-carboxamide] stands no less than 6.52; under `O=C(Nc1ccccc1)c1cc(NC2CCOCC2)c2[nH]c(-c3ccccc3)cc2c1` [Example 9, N,2-diphenyl-7-((tetrahydro-2H-pyran-4-yl)amino)-1H-indole-5-carboxamide], 6.00 to 6.52.
For `O=C(Nc1ccccc1)c1cc(NCc2ccccc2)c2[nH]c(-c3ccccc3)cc2c1` [Example 10, 7-(benzylamino)-N,2-diphenyl-1H-indole-5-carboxamide], the pEC50 is 6.00 to 6.52.
The figure for `CCN(CC)C(=O)Cc1cc(NC2CCCC2)c2[nH]c(-c3ccccc3)cc2c1` [Example 11, 2-(7-(cyclopentylamino)-2-phenyl-1H-indol-5-yl)-N,N-diethylacetamide] is 6.00 to 6.52; for `CCN(CC)C(=O)Cc1cc(NC2CCOCC2)c2[nH]c(-c3ccccc3)cc2c1` [Example 12, N,N-diethyl-2-(2-phenyl-7-((tetrahydro-2H-pyran-4-yl)amino)-1H-indol-5-yl)acetamide] it is no less than 6.52.
`CCN(CC)C(=O)Cc1cc(NCc2ccncc2)c2[nH]c(-c3ccccc3)cc2c1` [Example 13, N,N-diethyl-2-(2-phenyl-7-((pyridin-4-ylmethyl)amino)-1H-indol-5-yl)acetamide]: the negative-log EC50 (pEC50) is 6.00 to 6.52.
Consider `CNC(=O)Cc1cc(NC2CCOCC2)c2[nH]c(-c3ccccc3)cc2c1` [Example 15, N-methyl-2-(2-phenyl-7-((tetrahydro-2H-pyran-4-yl)amino)-1H-indol-5-yl)acetamide], for which the pEC50 was no less than 6.52.
As for `CNC(=O)Cc1cc(NC2CCCC2)c2[nH]c(-c3ccccc3)cc2c1` [Example 16, 2-(7-(cyclopentylamino)-2-phenyl-1H-indol-5-yl)-N-methylacetamide], the pEC50 is no less than 6.52.
For the compound `O=C(Cc1cc(NCc2ccccc2)c2[nH]c(-c3ccccc3)cc2c1)NC1CC1` [Example 17, 2-(7-(benzylamino)-2-phenyl-1H-indol-5-yl)-N-cyclopropylacetamide], the pEC50 is no less than 6.52.
Consider `O=C(Cc1cc(NCc2ccccc2)c2[nH]c(-c3ccccc3)cc2c1)Nc1ccccc1` [Example 18, 2-(7-(benzylamino)-2-phenyl-1H-indol-5-yl)-N-phenylacetamide], for which the pEC50 was 6.00 to 6.52.
Turning to `O=C(Cc1cc(NC2CCOCC2)c2[nH]c(-c3ccccc3)cc2c1)Nc1ccccc1` [Example 19, N-phenyl-2-(2-phenyl-7-((tetrahydro-2H-pyran-4-yl)amino)-1H-indo1-5-yl)acetamide], the pEC50 was no less than 6.52.
The figure for `CCNS(=O)(=O)c1cc(NC2CCOCC2)c2[nH]c(-c3ccccc3)cc2c1` [Example 20, N-ethyl-2-phenyl-7-((tetrahydro-2H-pyran-4-yl)amino)-1H-indole-5-sulfonamide] is no less than 6.52.
For `CCNS(=O)(=O)c1cc(NCc2ccccc2)c2[nH]c(-c3ccccc3)cc2c1` [Example 21, 7-(benzylamino)-N-ethyl-2-phenyl-1H-indole-5-sulfonamide], the pEC50 is less than 6.00.
For `N#CCc1cc(NC2CCOCC2)c2[nH]c(-c3ccccc3)cc2c1` [Example 23, 2-(2-phenyl-7-((tetrahydro-2H-pyran-4-yl)amino)-1H-indol-5-yl)acetonitrile], the pEC50 was no less than 6.52.
In the case of `CC(C)(O)C#Cc1cc(NC2CCOCC2)c2[nH]c(-c3ccccc3)cc2c1` [Example 24, 2-methyl-4-(2-phenyl-7-((tetrahydro-2H-pyran-4-yl)amino)-1H-indol-5-yl)but-3-yn-2-ol], the pEC50 was no less than 6.52.
Take `CC(C)(O)C#Cc1cc(NC2CCCC2)c2[nH]c(-c3ccccc3)cc2c1` [Example 25, 4-(7-(cyclopentylamino)-2-phenyl-1H-indol-5-yl)-2-methylbut-3-yn-2-ol]: the pEC50 was no less than 6.52.
As for `OCCOCc1cc(NC2CCCC2)c2[nH]c(-c3ccccc3)cc2c1` [Example 26, 2-((7-(cyclopentylamino)-2-phenyl-1H-indol-5-yl)methoxy)ethan-1-ol], the pEC50 is no less than 6.52.
As for `OCCOCCCc1cc(NC2CCOCC2)c2[nH]c(-c3ccccc3)cc2c1` [Example 28, 2-(3-(2-phenyl-7-((tetrahydro-2H-pyran-4-yl)amino)-1H-indol-5-yl)propoxy)ethan-1-ol], the negative-log EC50 (pEC50) was no less than 6.52.
With `CC(C)(O)COCc1cc(NC2CCOCC2)c2[nH]c(-c3ccccc3)cc2c1` [Example 30, 2-methyl-1-((2-phenyl-7-((tetrahydro-2H-pyran-4-yl)amino)-1H-indol-5-yl)methoxy)propan-2-ol], the pEC50 was no less than 6.52.
The figure for `CC(C)(O)COCCOCc1cc(NC2CCOCC2)c2[nH]c(-c3ccccc3)cc2c1` [Example 31, 2-methyl-1-(2-((2-phenyl-7-((tetrahydro-2H-pyran-4-yl)amino)-1H-indol-5-yl)methoxy)ethoxy)propan-2-ol] is no less than 6.52; for `CCC(O)(CC)COCCOCc1cc(NC2CCOCC2)c2[nH]c(-c3ccccc3)cc2c1` [Example 32, 3-((2-((2-phenyl-7-((tetrahydro-2H-pyran-4-yl)amino)-1H-indol-5-yl)methoxy)ethoxy)methyl)pentan-3-ol] it is no less than 6.52.
As to `OCCOCCc1cc(NC2CCOCC2)c2[nH]c(-c3ccccc3)cc2c1` [Example 33, 2-(2-(2-phenyl-7-((tetrahydro-2H-pyran-4-yl)amino)-1H-indol-5-yl)ethoxy)ethan-1-ol], the negative logarithm of the EC50 (pEC50) was no less than 6.52.
Turning to `OCCCOCCOCc1cc(NC2CCOCC2)c2[nH]c(-c3ccccc3)cc2c1` [Example 34, 3-(2-((2-phenyl-7-((tetrahydro-2H-pyran-4-yl)amino)-1H-indol-5-yl)methoxy)ethoxy)propan-1-ol], the negative-log EC50 (pEC50) was no less than 6.52.
In the case of `OC1CCC(OCc2cc(NC3CCOCC3)c3[nH]c(-c4ccccc4)cc3c2)CC1` (stereo not shown) [Example 35, 4-((2-phenyl-7-((tetrahydro-2H-pyran-4-yl)amino)-1H-indol-5-yl)methoxy)cyclohexan-1-ol], the pEC50 was no less than 6.52.
`c1ccc(-c2cc3cc(COC4CCOCC4)cc(NC4CCOCC4)c3[nH]2)cc1` [Example 37, 2-phenyl-N-(tetrahydro-2H-pyran-4-yl)-5-(((tetrahydro-2H-pyran-4-yl)oxy)methyl)-1H-indol-7-amine]: the pEC50 was no less than 6.52.
`OC1CCC(OCCOCc2cc(NC3CCOCC3)c3[nH]c(-c4ccccc4)cc3c2)CC1` (stereo not shown) [Example 38, 4-(2-((2-phenyl-7-((tetrahydro-2H-pyran-4-yl)amino)-1H-indol-5-yl)methoxy)ethoxy)cyclohexan-1-ol]: the pEC50 was less than 6.00.
Under `FCCOCc1cc(NC2CCOCC2)c2[nH]c(-c3ccccc3)cc2c1` [Example 39, 5-((2-fluoroethoxy)methyl)-2-phenyl-N-(tetrahydro-2H-pyran-4-yl)-1H-indol-7-amine] stands no less than 6.52; under `c1ccc(-c2cc3cc(COCCN4CCOCC4)cc(NC4CCOCC4)c3[nH]2)cc1` [Example 42, 5-((2-morpholinoethoxy)methyl)-2-phenyl-N-(tetrahydro-2H-pyran-4-yl)-1H-indol-7-amine], no less than 6.52.
Turning to `O=S1(=O)CCN(CCOCc2cc(NC3CCCC3)c3[nH]c(-c4ccccc4)cc3c2)CC1` [Example 43, 4-(2-((7-(cyclopentylamino)-2-phenyl-1H-indol-5-yl)methoxy)ethyl)thiomorpholine 1,1-dioxide], the pEC50 is no less than 6.52.
Take `CS(=O)(=O)CCOCc1cc(NC2CCCC2)c2[nH]c(-c3ccccc3)cc2c1` [Example 44, N-cyclopentyl-5-((2-(methylsulfonyl)ethoxy)methyl)-2-phenyl-1H-indol-7-amine]: the pEC50 was no less than 6.52.
Consider `CS(=O)(=O)CCOCc1cc(NC2CCOCC2)c2[nH]c(-c3ccccc3)cc2c1` [Example 45, 5-((2-(methylsulfonyl)ethoxy)methyl)-2-phenyl-N-(tetrahydro-2H-pyran-4-yl)-1H-indol-7-amine], for which the pEC50 is no less than 6.52.

The values are drawn from patent US20260159481A1, “INDOLE DERIVATIVE WITH SUBSTITUENT AND PHARMACEUTICAL USE” (MITOIMMUNE THERAPEUTICS INC., priority 2023, published 2026).
